Read-outs that look alike come from different tables or passages of the source. Bounds are passed on as bounds.

The target in this assay is T1, Cbl-B (Homo sapiens, UniProt Q13191).
T1 construct: MSD-Based Assay for Degradation of Cbl-B in THP-1 Cells; endogenous in cells; host or cells: THP-1 (title) / Jurkat (protocol text)
The assay can be described thus: MSD-based assay for degradation of Cbl-B in THP-1 cells. The assay is classed as cell-based. In outline: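 THP-1 cells were treated with compound for 24 h at 37 °C. Cbl-B in lysates was quantified by MSD sandwich immunoassay, with anti-Cbl-B capture antibody at 1 ug/mL and SULFO-TAG anti-rabbit detection. Maximal degradation (Dmax) was binned as A >70%, B 50–70%, C 30–50%, D <30%.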

The mark [1] stands for this setting: Cbl-B degradation, Jurkat cells seeded (heading: THP-1 cells), 24 hours incubation, MSD readout.
[2] abbreviates: Cbl-B degradation, Jurkat cells seeded (heading: THP-1 cells), 24 hours incubation, MSD readout, read-out: Dmax.

T1 sequence (Q13191 whole entry): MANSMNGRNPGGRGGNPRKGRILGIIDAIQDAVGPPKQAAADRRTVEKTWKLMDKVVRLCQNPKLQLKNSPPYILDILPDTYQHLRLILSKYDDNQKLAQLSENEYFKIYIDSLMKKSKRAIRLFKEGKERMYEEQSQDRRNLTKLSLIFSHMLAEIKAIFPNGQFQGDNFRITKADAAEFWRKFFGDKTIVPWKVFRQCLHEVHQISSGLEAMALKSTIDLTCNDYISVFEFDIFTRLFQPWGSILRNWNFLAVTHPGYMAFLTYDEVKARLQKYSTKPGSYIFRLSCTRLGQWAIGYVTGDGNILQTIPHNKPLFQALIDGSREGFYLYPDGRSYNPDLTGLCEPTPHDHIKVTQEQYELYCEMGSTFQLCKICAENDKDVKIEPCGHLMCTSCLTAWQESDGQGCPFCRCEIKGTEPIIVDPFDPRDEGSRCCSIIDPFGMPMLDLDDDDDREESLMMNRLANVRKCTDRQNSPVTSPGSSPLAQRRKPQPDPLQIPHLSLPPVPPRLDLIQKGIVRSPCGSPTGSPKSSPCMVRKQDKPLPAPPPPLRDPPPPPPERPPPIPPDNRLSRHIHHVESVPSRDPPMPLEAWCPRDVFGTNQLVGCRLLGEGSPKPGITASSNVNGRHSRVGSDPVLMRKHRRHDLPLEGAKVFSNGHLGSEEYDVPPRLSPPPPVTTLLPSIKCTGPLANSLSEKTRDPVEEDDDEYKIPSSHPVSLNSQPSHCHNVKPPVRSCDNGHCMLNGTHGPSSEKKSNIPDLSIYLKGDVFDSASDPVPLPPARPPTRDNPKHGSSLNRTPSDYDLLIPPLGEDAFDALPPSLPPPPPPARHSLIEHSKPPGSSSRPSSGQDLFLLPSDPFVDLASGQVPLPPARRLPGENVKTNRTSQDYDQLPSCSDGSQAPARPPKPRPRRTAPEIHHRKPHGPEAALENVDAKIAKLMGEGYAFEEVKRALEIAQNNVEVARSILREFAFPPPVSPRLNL

Under setting [1], `Cn1cnnc1[C@@H](c1cccc(-n2cc3c(C(F)(F)F)cc(CN4CCC(C5CCN(C(=O)c6ccc(N7CCN(c8ccc9c(c8)CN([C@@H]8CCC(=O)NC8=O)C9=O)CC7)cc6)CC5)CC4)cn3c2=O)c1)C1CCC1` (single isomer, unassigned) [Compound 161] showed a DC50 of 300 to 1000 nM. Also, the Dmax under setting [2] was under 30%.
The compound `Cn1cnnc1[C@@H](c1cccc(-n2cc3c(C(F)(F)F)cc(CN4CCC(C5CCN(C(=O)c6ccc(N7CCN(c8ccc9c(c8)CN([C@H]8CCC(=O)NC8=O)C9=O)CC7)cc6)CC5)CC4)cn3c2=O)c1)C1CCC1` (single isomer, unassigned) [Compound 162] had a DC50 under setting [1] of under 30 nM. Moreover, the Dmax under setting [2] was over 70%.
In turn, `Cn1cnnc1[C@@H](c1cccc(-n2cc3c(C(F)(F)F)cc(CN4CCC[C@@H](OC5CCN(C(=O)c6ccc(N7CCN(c8ccc9c(c8)CN([C@@H]8CCC(=O)NC8=O)C9=O)CC7)cc6)CC5)C4)cn3c2=O)c1)C1CCC1` (single isomer, unassigned) [Compound 171] came in with a DC50 under setting [1] of under 30 nM. In addition, under setting [2], the Dmax was 50 to 70%.
In the same order, the values of `Cn1cnnc1[C@@H](c1cccc(-n2cc3c(C(F)(F)F)cc(CN4CCC[C@@H](OC5CCN(C(=O)c6ccc(N7CCN(c8ccc9c(c8)CN([C@H]8CCC(=O)NC8=O)C9=O)CC7)cc6)CC5)C4)cn3c2=O)c1)C1CCC1` (single isomer, unassigned) [Compound 172] are under 30 nM and over 70%.
Under setting [1], `Cn1cnnc1[C@@H](c1cccc(-n2cc3c(C(F)(F)F)cc(CN4CCC(OCCOCc5ccc(CC6CCN(c7ccc8c(c7)CN([C@@H]7CCC(=O)NC7=O)C8=O)CC6)cc5)CC4)cn3c2=O)c1)C1CCC1` (single isomer, unassigned) [Compound 173] returned a DC50 of 1000 to 10000 nM. This compound also displayed a Dmax (THP-1) of 30 to 50%.
Under setting [1], `Cn1cnnc1[C@@H](c1cccc(-n2cc3c(C(F)(F)F)cc(CN4CCC(OCCOCc5ccc(CC6CCN(c7ccc8c(c7)CN([C@H]7CCC(=O)NC7=O)C8=O)CC6)cc5)CC4)cn3c2=O)c1)C1CCC1` (single isomer, unassigned) [Compound 174] displayed a DC50 of under 30 nM. The Dmax under setting [2] was over 70%.
As for `Cn1cnnc1[C@@H](c1cccc(-n2cc3c(C(F)(F)F)cc(CN4CCC(CC(=O)N5CCC(C6CCN(c7ccc8c(c7)CN([C@@H]7CCC(=O)NC7=O)C8=O)CC6)CC5)CC4)cn3c2=O)c1)C1CCC1` (single isomer, unassigned) [Compound 177], the DC50 under setting [1] lay in the range of 300 to 1000 nM. Under setting [2], the Dmax was in the range of 30 to 50%.
Consider `Cn1cnnc1[C@@H](c1cccc(-n2cc3c(C(F)(F)F)cc(CN4CCC(CC(=O)N5CCC(C6CCN(c7ccc8c(c7)CN([C@H]7CCC(=O)NC7=O)C8=O)CC6)CC5)CC4)cn3c2=O)c1)C1CCC1` (single isomer, unassigned) [Compound 178], for which the DC50 under setting [1] was under 30 nM. The Dmax under setting [2] is over 70%.
For `CN(CCC1CCN(Cc2cc(C(F)(F)F)c3cn(-c4cccc([C@H](c5nncn5C)C5CCC5)c4)c(=O)n3c2)CC1)C(=O)c1ccc(N2CCN(c3ccc4c(c3)CN([C@@H]3CCC(=O)NC3=O)C4=O)CC2)cc1` (single isomer, unassigned) [Compound 185], the DC50 under setting [1] is 30 to 300 nM. Besides, under setting [2], the Dmax lay within 50 to 70%.
Turning to `CN(CCC1CCN(Cc2cc(C(F)(F)F)c3cn(-c4cccc([C@H](c5nncn5C)C5CCC5)c4)c(=O)n3c2)CC1)C(=O)c1ccc(N2CCN(c3ccc4c(c3)CN([C@H]3CCC(=O)NC3=O)C4=O)CC2)cc1` (single isomer, unassigned) [Compound 186], the DC50 under setting [1] is under 30 nM. For the same compound, the Dmax under setting [2] is over 70%.
The compound `Cn1cnnc1[C@@H](c1cccc(-n2cc3c(C(F)(F)F)cc(CN4CCC[C@H](OCc5ccc(CC6CCN(c7ccc8c(c7)CN([C@@H]7CCC(=O)NC7=O)C8=O)CC6)cc5)C4)cn3c2=O)c1)C1CCC1` (single isomer, unassigned) [Compound 187] registered a DC50 under setting [1] of over 10000 nM.
On the same count and under the same terms, the result for `Cn1cnnc1[C@@H](c1cccc(-n2cc3c(C(F)(F)F)cc(CN4CCC[C@H](OCc5ccc(CC6CCN(c7ccc8c(c7)CN([C@H]7CCC(=O)NC7=O)C8=O)CC6)cc5)C4)cn3c2=O)c1)C1CCC1` (single isomer, unassigned) [Compound 188] reads 300 to 1000 nM.
As for `Cn1cnnc1[C@@H](c1cccc(N2Cc3c(cc(CN4CCC[C@H](OCc5ccc(CC6CCN(c7ccc8c(c7)CN([C@@H]7CCC(=O)NC7=O)C8=O)CC6)cc5)C4)cc3C(F)(F)F)C2=O)c1)C1CCC1` (single isomer, unassigned) [Compound 189], the DC50 under setting [1] was over 10000 nM. Further, the Dmax under setting [2] was under 30%.
`Cn1cnnc1[C@@H](c1cccc(-n2cc3c(C(F)(F)F)cc(CN4CCC[C@@H](OCc5ccc(CC6CCN(c7ccc8c(c7)CN([C@H]7CCC(=O)NC7=O)C8=O)CC6)cc5)C4)cn3c2=O)c1)C1CCC1` (single isomer, unassigned) [Compound 192] displayed a DC50 under setting [1] of 1000 to 10000 nM.
Regarding `Cn1cnnc1[C@@H](c1cccc(N2Cc3c(cc(CN4CCC[C@@H](OCc5ccc(CC6CCN(c7ccc8c(c7)CN([C@@H]7CCC(=O)NC7=O)C8=O)CC6)cc5)C4)cc3C(F)(F)F)C2=O)c1)C1CCC1` (single isomer, unassigned) [Compound 193], under setting [1], the DC50 is over 10000 nM. Also, the Dmax under setting [2] is under 30%.
For `Cn1cnnc1[C@@H](c1cccc(N2Cc3c(cc(CN4CCC[C@@H](OCc5ccc(CC6CCN(c7ccc8c(c7)CN([C@H]7CCC(=O)NC7=O)C8=O)CC6)cc5)C4)cc3C(F)(F)F)C2=O)c1)C1CCC1` (single isomer, unassigned) [Compound 194], in that order: 30 to 300 nM and 30 to 50%.
For `Cn1cnnc1[C@@H](c1cccc(-n2cc3c(C(F)(F)F)cc(CN4CCC[C@H](OC5CCN(C(=O)c6ccc(N7CCN(c8ccc9c(c8)CN([C@@H]8CCC(=O)NC8=O)C9=O)CC7)cc6)CC5)C4)cn3c2=O)c1)C1CCC1` (single isomer, unassigned) [Compound 195], the DC50 under setting [1] is 30 to 300 nM. The Dmax under setting [2] lay within 50 to 70%.
`Cn1cnnc1[C@@H](c1cccc(-n2cc3c(C(F)(F)F)cc(CN4CCC[C@H](OC5CCN(C(=O)c6ccc(N7CCN(c8ccc9c(c8)CN([C@H]8CCC(=O)NC8=O)C9=O)CC7)cc6)CC5)C4)cn3c2=O)c1)C1CCC1` (single isomer, unassigned) [Compound 196] showed a DC50 under setting [1] of under 30 nM. The Dmax under setting [2] is over 70%.
Under setting [1], `CN(CCN(C)C(=O)c1cc(C(F)(F)F)c2cn(-c3cccc([C@H](c4nncn4C)C4CCC4)c3)c(=O)n2c1)C(=O)c1ccc(C2CCN(c3ccc4c(c3)CN([C@@H]3CCC(=O)NC3=O)C4=O)CC2)cc1` (single isomer, unassigned) [Compound 197] had a 50% degradation concentration (DC50) of over 10000 nM. For the same compound, under setting [2], the Dmax is under 30%.
Under setting [1], `CN(CCN(C)C(=O)c1cc(C(F)(F)F)c2cn(-c3cccc([C@H](c4nncn4C)C4CCC4)c3)c(=O)n2c1)C(=O)c1ccc(C2CCN(c3ccc4c(c3)CN([C@H]3CCC(=O)NC3=O)C4=O)CC2)cc1` (single isomer, unassigned) [Compound 198] registered a DC50 of over 10000 nM. Besides, the Dmax under setting [2] was under 30%.
As to `CN(CC1CCN(Cc2cc(C(F)(F)F)c3cn(-c4cccc([C@H](c5nncn5C)C5CCC5)c4)c(=O)n3c2)CC1)C(=O)c1ccc(C2CCN(c3ccc4c(c3)CN([C@@H]3CCC(=O)NC3=O)C4=O)CC2)cc1` (single isomer, unassigned) [Compound 199], the 50% degradation concentration (DC50) under setting [1] fell in the range of 30 to 300 nM. In addition, the Dmax under setting [2] lay in the range of 30 to 50%.
Turning to `CN(CC1CCN(Cc2cc(C(F)(F)F)c3cn(-c4cccc([C@H](c5nncn5C)C5CCC5)c4)c(=O)n3c2)CC1)C(=O)c1ccc(C2CCN(c3ccc4c(c3)CN([C@H]3CCC(=O)NC3=O)C4=O)CC2)cc1` (single isomer, unassigned) [Compound 200], the DC50 under setting [1] is under 30 nM. The Dmax under setting [2] was over 70%.
Consider `Cn1cnnc1[C@@H](c1cccc(-n2cc3c(C(F)(F)F)cc(CN4CCN(C(=O)Cc5ccc(C6CCN(c7ccc8c(c7)CN([C@@H]7CCC(=O)NC7=O)C8=O)CC6)cc5)CC4)cn3c2=O)c1)C1CCC1` (single isomer, unassigned) [Compound 201], for which the DC50 under setting [1] is 30 to 300 nM. Under setting [2], the Dmax lay in the range of 30 to 50%.
Under setting [1], `Cn1cnnc1[C@@H](c1cccc(-n2cc3c(C(F)(F)F)cc(CN4CCN(C(=O)Cc5ccc(C6CCN(c7ccc8c(c7)CN([C@H]7CCC(=O)NC7=O)C8=O)CC6)cc5)CC4)cn3c2=O)c1)C1CCC1` (single isomer, unassigned) [Compound 202] gave a DC50 of under 30 nM. Moreover, the Dmax under setting [2] was over 70%.
As for `Cn1cnnc1CC1(c2cccc(-n3cc4c(C(F)(F)F)cc(CN5CCC(OCc6ccc(C7CCN(c8ccc9c(c8)CN([C@@H]8CCC(=O)NC8=O)C9=O)CC7)cc6)CC5)cn4c3=O)c2)COC1` (single isomer, unassigned) [Compound 205], under setting [1], the DC50 lay in the range of 30 to 300 nM. Further, under setting [2], the Dmax lay within 30 to 50%.
For `Cn1cnnc1CC1(c2cccc(-n3cc4c(C(F)(F)F)cc(CN5CCC(OCc6ccc(C7CCN(c8ccc9c(c8)CN([C@H]8CCC(=O)NC8=O)C9=O)CC7)cc6)CC5)cn4c3=O)c2)COC1` (single isomer, unassigned) [Compound 206], the DC50 under setting [1] lay within 30 to 300 nM. Moreover, the greatest degradation seen (Dmax) under setting [2] was 50 to 70%.
In the same order, the values of `Cn1cnnc1[C@@H](c1cccc(-n2cc3c(C(F)(F)F)cc(CN4CCC(OCc5cccc(CN6CCN(c7ccc8c(c7)CN([C@@H]7CCC(=O)NC7=O)C8=O)CC6)c5)CC4)cn3c2=O)c1)C1CCC1` (single isomer, unassigned) [Compound 207] are over 10000 nM and under 30%.
In the same order, the values of `Cn1cnnc1[C@@H](c1cccc(-n2cc3c(C(F)(F)F)cc(CN4CCC(OCc5cccc(CN6CCN(c7ccc8c(c7)CN([C@H]7CCC(=O)NC7=O)C8=O)CC6)c5)CC4)cn3c2=O)c1)C1CCC1` (single isomer, unassigned) [Compound 208] are over 10000 nM and under 30%.

The values above are taken from patent US20250340552A1, “COMPOUNDS, COMPOSITIONS AND METHODS OF TREATING DISORDERS” (HOTSPOT THERAPEUTICS, INC., priority 2022, published 2025).
